We go through 26 molecules from patent US20030199558A1, “Hydroxamic acid and its derivatives as inhibitors of melanocyte tyrosinase for topical skin lighteners” (Integriderm, Inc., priority 2001, published 2003).

Data set [1] relates to mammalian melanocyte culture. In words: mammalian melanocyte culture toxicity assay. Format: cell-based, mouse. From the text:
To determine cytotoxicity (and/or cytostasis), crystal violet or other staining methods may be used to quantify adherent cell numbers following a period of treatment by an agent.

The target of data set [2] is T1, mammalian tyrosinase (Mus musculus, UniProt P11344).
T1 construct: Cellular lysates of Mel-Ab cells may be used as tyrosinase enzyme preparations; endogenous in cells; host or cells: Mel-Ab mouse melanocytes (cell lysate)
T1 sequence (P11344 19-533): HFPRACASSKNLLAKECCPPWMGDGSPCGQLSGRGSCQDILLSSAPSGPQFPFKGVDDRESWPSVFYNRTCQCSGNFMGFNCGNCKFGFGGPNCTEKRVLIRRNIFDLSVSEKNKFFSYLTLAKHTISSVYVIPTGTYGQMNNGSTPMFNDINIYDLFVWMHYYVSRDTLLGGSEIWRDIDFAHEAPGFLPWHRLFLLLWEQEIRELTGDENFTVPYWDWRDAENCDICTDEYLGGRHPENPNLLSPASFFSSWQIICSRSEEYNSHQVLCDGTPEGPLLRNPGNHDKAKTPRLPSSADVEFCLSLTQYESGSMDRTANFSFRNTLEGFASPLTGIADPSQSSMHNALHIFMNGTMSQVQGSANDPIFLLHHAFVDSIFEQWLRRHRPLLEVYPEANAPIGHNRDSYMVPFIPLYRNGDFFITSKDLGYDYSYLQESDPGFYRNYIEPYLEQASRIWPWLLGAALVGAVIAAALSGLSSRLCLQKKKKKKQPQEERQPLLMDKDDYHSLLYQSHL
In words: cell-free mammalian tyrosinase enzyme assay. Conditions: cell-free enzyme extract; read-out: E: concentration of compound that produces 50% inhibition in the cell-free mammalian tyrosinase enzyme assay. Format: biochemical. From the text: (§1) In the present invention, one or more of three in vitro bioassays can be utilized to evaluate the efficacy and toxicity of candidate skin-lightening compounds. The three bioassays characterize the compounds with regard to mammalian tyrosinase enzyme inhibition (cell free), pigmentation in cultured melanocyte cells, and cytotoxicity of mammalian cultured cells. Both cell-based pigmentation and cell-free enzymatic assays have been developed using the mammalian melanocyte cell line, Mel-Ab, a C57BL/6 mouse-derived cell line that produces high levels of melanin. A distinct advantage of this approach is that humans share substantial sequence similarities in their genes (DNA) and proteins (such as tyrosinase) with mice, relative to non-mammalian species (e.g., mushrooms). So, in vitro mouse Mel-Ab melanocytes can serve as adequate surrogates for human melanocytes and Mel-Ab-derived tyrosinase may substitute for the human enzyme for many pharmacologic purposes.
(§2) These adherent murine melanocytes are grown on tissue culture plastic in medium supplemented with fetal bovine serum, 12-O-tetradecanoylphorbol-13-acetate (TPA) to stimulate cell division via down-regulation of protein kinase C, [22, 23] and cholera toxin to stimulate adenylate cyclase activity in the absence of α-MSH. Cellular lysates of Mel-Ab cells may be used as tyrosinase enzyme preparations. Multi-well plate assays have been validated for enzyme inhibition (e.g., DOPA oxidation by calorimetric measurement or radiolabeled substrate incorporation into melanin) and for pigmentation assays on cultured Mel-Ab cells. After 4-6 days of treatment of cultured cells, melanin content is determined using a spectrophotometer at 400+ nm. This assay can detect an apparent loss in pigmentation resulting from either inhibition of de novo synthesis (e.g. via inhibition of tyrosinase, or the adenylate cyclase pathway, or another pathway) or a cytostatic/cytotoxic mechanism. It is therefore a broad primary screen. It is used in parallel with the tyrosinase enzymatic assay to determine whether an inhibitor of pigmentation at the cellular level is acting primarily at the enzyme level.
A first class of compounds based upon the template compound benzohydroxamic acid were tested for tyrosinase inhibition by methods described in Curto, E. V., et al. (1999). Results of the tests are given in Examples 1-5.
(§3) Inhibition [μM] as measured in three assays. Here “E” “E” [μM] is the concentration of compound that produces 50% inhibition in the cell-free mammalian tyrosinase enzyme assay is the concentration of compound that produces 50% inhibition in the cell-free mammalian tyrosinase enzyme assay. “P” represents the concentration of compound that produces 50% inhibition in the mammalian Mel Ab melanocyte culture pigment assay system. “T” is the concentration of compound that results in 50% reduction in cell number in the mammalian melanocyte culture toxicity assay system.

In data set [3] the test system is Mel Ab melanocyte. In words: mammalian Mel Ab melanocyte culture pigment assay. The format is cell-based, mouse. Conditions: read-out: P: concentration of compound that produces 50% inhibition in the mammalian Mel Ab melanocyte culture pigment assay.
Text: as §1, §2, §3

Data set [4] has as its system mammalian melanocyte culture. Conditions: cited from earlier work.
The target in data set [5] is T1, mammalian tyrosinase. Conditions: cited from earlier work.
The subject of data set [6] is Mel Ab melanocyte. Conditions: cited from earlier work.

Values after ≈ are worked out from the molar mass of the structure shown. Values joined by “and” are separate entries in the source; they are usually repeats but may differ in a detail not shown here. Equal entries are not always repeated. Where two headings read alike, the source gives them in different places.

In the case of `COc1cccc(C(=O)NO)c1` [ID-478, 3-Methoxybenzohydroxamic acid], in data set [1], the “T: concentration of compound that results in 50% reduction in cell number in the mammalian melanocyte culture toxicity assay” value is 580 µM. Besides, the IC50 worked out at 0.91 µM in data set [2] and 148 µM in data set [3] (Mus musculus, Mel-Ab).

As to `COc1ccc(C(=O)NO)c(O)c1` [ID-462], in data set [1], the “T: concentration of compound that results in 50% reduction in cell number in the mammalian melanocyte culture toxicity assay” value is >1000 µM. For the same molecule, the IC50 in data set [2] is 3.6 µM; in data set [3] (Mus musculus, Mel-Ab) it was > 1000 µM.

Turning to `Nc1ccc(C(=O)NO)cc1` [ID-476, 4-Aminobenzohydroxamic acid], the “T: concentration of compound that results in 50% reduction in cell number in the mammalian melanocyte culture toxicity assay” value in data set [1] stood at 550 µM. The IC50 was 0.34 µM in data set [2] and 64 µM in data set [3] (Mus musculus, Mel-Ab).

`O=C(NO)c1cccc(Oc2ccccc2)c1` [ID-500, 3-Phenoxybenzohydroxamic acid]: in data set [1], the “T: concentration of compound that results in 50% reduction in cell number in the mammalian melanocyte culture toxicity assay” value was >300 µM. Further, the IC50 was found to be 0.16 µM in data set [2] and 234 µM in data set [3] (Mus musculus, Mel-Ab).

For the molecule `COc1ccc(C(=O)N[O-])cc1OC.[K+]` [ID-458, Potassium salt of 3,4-dimethoxy-benzohydroxamic acid], the “T: concentration of compound that results in 50% reduction in cell number in the mammalian melanocyte culture toxicity assay” value in data set [1] stood at 624 µM. For the same molecule, the IC50 stood at 23 µM in data set [2] and 637 µM in data set [3].

Take `COc1ccc(C(=O)N[O-])cc1.[K+]` [ID-479, Potassium salt of 4-methoxybenzohydroxamic acid]: the “T: concentration of compound that results in 50% reduction in cell number in the mammalian melanocyte culture toxicity assay” value in data set [1] was 64 µM. In addition, the IC50 was determined as 1.67 µM in data set [2] and 43 µM in data set [3].

In the case of `COC(=O)c1cc(O)ccc1O` [methyl gentisate], the “melanocyte cytotoxicity IC50” value in data set [4] (Curto et al. (1999)) was 118.7 ± 12 µg/mL. Besides, the IC50 was 707 µM in data set [4] (Curto et al. (1999), read-out: melanocyte cytotoxicity IC50); 67 µM and 66.6 µM in data set [5] (Curto et al. (1999), read-out: IC50 against tyrosinase in cell-free assays (converted)); 184 µM in data set [6] (Curto et al. (1999), read-out: IC50 in pigmentation inhibition in melanocyte cell cultures). In addition, the “IC50 in pigmentation inhibition in melanocyte cell cultures” value in data set [6] (Curto et al. (1999)) is 30.9 ± 5 µg/mL (≈ 184 µM).

Take `Nc1ccccc1C(=O)NO` [ID-318, 2-Aminobenzohydroxamic acid]: the “T: concentration of compound that results in 50% reduction in cell number in the mammalian melanocyte culture toxicity assay” value in data set [1] is 600 µM. The IC50 in data set [2] is 19 µM; in data set [3] (Mus musculus, Mel-Ab), 431 µM.

Regarding `Oc1ccc(O)cc1` [hydroquinone], the “melanocyte cytotoxicity” value in data set [4] was “potent melanocyte cytotoxicity”. Moreover, the “enzymatic inhibition” value in data set [5] is recorded as “minimal enzymatic inhibition”. Also, in data set [6] (positive control, owing to cytotoxicity and not inhibition of pigmentation per se), the “IC50 on Mel-Ab culture” value is “low micrograms per milliliter range”.

For the molecule `COc1ccccc1C(=O)NO` [ID-483, 2-Methoxybenzohydroxamic acid], the “T: concentration of compound that results in 50% reduction in cell number in the mammalian melanocyte culture toxicity assay” value in data set [1] was found to be 900 µM. For the same molecule, the IC50 in data set [2] worked out at 32 µM; in data set [3] (Mus musculus, Mel-Ab), 807 µM.

As for `COc1ccc(C(=O)NO)cc1OC` [ID-456, 3,4-Dimethoxybenzohydroxamic acid], the “T: concentration of compound that results in 50% reduction in cell number in the mammalian melanocyte culture toxicity assay” value in data set [1] came out at 641 µM. Also, the IC50 in data set [2] was 15 µM; in data set [3] (Mus musculus, Mel-Ab), 576 µM.

Take `COc1ccc(C(=O)NO)cc1` [ID-480, 4-Methoxybenzohydroxamic acid]: the “T: concentration of compound that results in 50% reduction in cell number in the mammalian melanocyte culture toxicity assay” value in data set [1] came out at 170 µM. Moreover, the IC50 in data set [2] is 1.26 µM; in data set [3] (Mus musculus, Mel-Ab), 57 µM.

As to `CC(=O)c1ccc(O)c(C(=O)NO)c1` [ID-474], in data set [1], the “T: concentration of compound that results in 50% reduction in cell number in the mammalian melanocyte culture toxicity assay” value was >1000 µM. In addition, the IC50 is 51 µM in data set [2] and > 1000 µM in data set [3] (Mus musculus, Mel-Ab).

Consider `CC(=O)Nc1ccccc1C(=O)NO` [ID-484, 2-Acetamidobenzohydroxamic acid], for which the “T: concentration of compound that results in 50% reduction in cell number in the mammalian melanocyte culture toxicity assay” value in data set [1] was >1000 µM. Also, the IC50 in data set [2] is > 231 µM; in data set [3] (Mus musculus, Mel-Ab), > 1000 µM.

Take `Cc1cccc(C(=O)NO)c1` [ID-481, 3-Methylbenzohydroxamic acid]: the “T: concentration of compound that results in 50% reduction in cell number in the mammalian melanocyte culture toxicity assay” value in data set [1] came out at 522 µM. The IC50 in data set [2] was < 0.25 µM; in data set [3] (Mus musculus, Mel-Ab) it was 60 µM.

In the case of `CC(=O)Nc1cccc(C(=O)NO)c1` [ID-486, 3-Acetamidobenzohydroxamic acid], the “T: concentration of compound that results in 50% reduction in cell number in the mammalian melanocyte culture toxicity assay” value in data set [1] was >1000 µM. Besides, the IC50 in data set [2] is 5.3 µM; in data set [3] (Mus musculus, Mel-Ab), 369 µM.

As to `Cc1ccc(C(=O)NO)cc1N` [ID-499, 13-Amino-4-methyl-benzohydroxamic acid], the “T: concentration of compound that results in 50% reduction in cell number in the mammalian melanocyte culture toxicity assay” value in data set [1] worked out at 747 µM. For the same molecule, the IC50 came out at 6.4 µM in data set [2] and 177 µM in data set [3] (Mus musculus, Mel-Ab).

On to `Cc1cccc(C(=O)N(C)O)c1` [ID-485, 3,N-Dimethylbenzohydroxamic acid], for which the “T: concentration of compound that results in 50% reduction in cell number in the mammalian melanocyte culture toxicity assay” value in data set [1] is >1000 µM. Further, the IC50 in data set [2] is 68 µM; in data set [3] (Mus musculus, Mel-Ab), > 1000 µM.

In the case of `CN(C)c1ccc(C(=O)NO)cc1` [ID-498, 4-Dimethylaminobenzo-hydroxamic acid], the “T: concentration of compound that results in 50% reduction in cell number in the mammalian melanocyte culture toxicity assay” value in data set [1] was 136 µM. Further, the IC50 in data set [2] turned out to be 2.2 µM; in data set [3] (Mus musculus, Mel-Ab), 44 µM.

On to `O=C(NO)c1ccccc1O` [ID-282, Salicylhydroxamic acid], for which the “T: concentration of compound that results in 50% reduction in cell number in the mammalian melanocyte culture toxicity assay” value in data set [1] worked out at 974 µM. In addition, the IC50 in data set [2] came out at 3.7 µM.

With `CCCCOc1ccc(C(=O)NO)cc1` [ID-477, 4-Butoxybenzohydroxamic acid], in data set [1], the “T: concentration of compound that results in 50% reduction in cell number in the mammalian melanocyte culture toxicity assay” value was >554 µM. Moreover, the IC50 worked out at 12 µM in data set [2] and 326 µM in data set [3] (Mus musculus, Mel-Ab).

With `Cc1ccc(C(=O)NO)cc1` [ID-497, 4-Methylbenzohydroxamic acid], the “T: concentration of compound that results in 50% reduction in cell number in the mammalian melanocyte culture toxicity assay” value in data set [1] stood at 160 µM. For the same molecule, the IC50 in data set [2] is 0.29 µM; in data set [3] (Mus musculus, Mel-Ab), 45 µM.

`Nc1cccc(C(=O)NO)c1` [ID-461, 3-Aminobenzohydroxamic acid]: in data set [1], the “T: concentration of compound that results in 50% reduction in cell number in the mammalian melanocyte culture toxicity assay” value is >1000 µM. Moreover, the IC50 in data set [2] was 4 µM; in data set [3] (Mus musculus, Mel-Ab) it was 225 µM.

With `O=C(NO)c1cccc(Cl)c1` [ID-482, 3-Chlorobenzohydroxamic acid], in data set [1], the “T: concentration of compound that results in 50% reduction in cell number in the mammalian melanocyte culture toxicity assay” value is 577 µM. The IC50 in data set [2] was < 0.25 µM; in data set [3] (Mus musculus, Mel-Ab) it was 40 µM.

For `O=C(NO)c1ccncc1` [ID-245], in data set [1], the “T: concentration of compound that results in 50% reduction in cell number in the mammalian melanocyte culture toxicity assay” value is 566 µM. The IC50 is 3.2 µM in data set [2] and 183 µM in data set [3] (Mus musculus, Mel-Ab).

Regarding `O=C(NO)c1ccccc1` [ID-357, Benzohydroxamic acid], the “T: concentration of compound that results in 50% reduction in cell number in the mammalian melanocyte culture toxicity assay” value in data set [1] was 64 µM. Besides, the IC50 in data set [2] was found to be 0.82 µM; in data set [3] (Mus musculus, Mel-Ab) it was 64 µM.
